Results published in US8829035B2, “Agent for treatment or prevention of diseases associated with activity of neurotrophic factors” (Sumitomo Chemical Company, Limited, priority 2009, dated 2014).
Counter-ions that a name gives are not always drawn.

test system: activity of 200 ng/mL of NGF (NXF promoter-driven luciferase in PC12 cells); assay: Luciferase reporter assay (NXF promoter) in PC12 cells: potentiation of NGF activity; format: cell-based, rat; design: key: +: Showed relatively weak potentiation (potentiation only exhibited at 10 μM); ++: Showed potentiation; +++: Showed particularly strong potentiation (2-fold or greater potentiation of the activity of 200 ng/mL of NGF at 1 μM); conditions: Test Example 1, relative luciferase activity vs 200 ng/mL NGF alone, overnight (approx. 16 hours)
Procedure: The forward primer 5′-[…]-3′ and the reverse primer 5′-[…]-3′ were prepared as the PCR primers according to the sequence information for the NXF gene genome sequence (Accession Nos. AB054577 and NC—000085), and the PCR method was used to isolate from approximately 5 kbp upstream from the translated region of the NXF gene promoter portion to the vicinity of the transcription start site. For this, 1 μg of mouse genomic DNA (Takara) was used as the template, and the 2-step PCR reaction was carried out for 35 cycles, the conditions for which were 95° C./1 m in the denaturing step, and 68° C./8 m in the annealing and extension steps, to obtain the PCR product. The NXF promoter fragment was inserted into the SmaI site of the pGL3 Basic vector (Promega) in the upstream of luciferase gene to prepare a reporter plasmid that would express the luciferase enzyme driven by the NXF promoter.
PC12 cells (available from the ATCC) were cultured using RPMI medium (GIBCO-BRL) with 5% FCS (GIBCO-BR) and 15% horse serum (GIBCO-BRL) added, and 1 mM in sodium pyruvate (GIBCO-BRL), at 37° C. in the presence of 5% CO2. After transfection in 10^6 of these PC12 cells for 2 days with 12 μg of the above-described reporter plasmid and 1 μg of pRC/RSV vector (Invitrogen) using the Lipofectamine 2000 reagent (Invitrogen), the medium was exchanged for fresh medium containing 40 mg/L of geneticin sulfate (GIBCO), and this was cultured continuously. Culturing was continued for approximately 1 month with medium exchange of the cultured medium containing 40 mg/L of geneticin sulfate (GIBCO) every several days, with the result that multiple colonies of the obtained cells were picked up. Among these, one of the colonies that induced luciferase activity in the presence of 40 ng/mL of NGF (Wako Pure Chemicals) was selected and used for the cells to evaluate the activity of the compounds below.
These cells were set up in 96-well plates with 80% confluence, and the luciferase reporter assay was conducted using the Promega Steady Glo luciferase assay kit. The procedure was carried out overnight (approx. 16 hours) using culture medium containing the compound, and the Steady Glo substrate solution was added to the cells in half-diluted in PBS after removal of all remaining medium containing the compound. After this was allowed to stand for 30 minutes, the respective quantity of light produced was measured with a luminometer (Envision Perkin Elmer).
The activity of the compounds for evaluation was measured as the potentiation of the activity of 200 ng/mL of NGF. For the experiment control wells, the negative control well had medium containing only a final concentration of 0.1% DMSO, the positive control well had medium containing a saturation concentration of NGF. In addition, a test well was set up containing 0.1% DMSO with 200 ng/mL of NGF added corresponding to a 0 compound concentration. When its luciferase activity was taken as a standard, the relative luciferase activity could be calculated for the test wells to which the compound solution (dissolved in DMSO and prepared to have a final DMSO concentration of 0.1%) had been added in addition to the 200 ng/mL of NGF, to find the potentiation of the activity of 200 ng/mL of NGF due to that compound.

Structure (SMILES) | Activity (potentiation of NGF activity)
Cc1nc2cc(-c3nc4ccccc4o3)ccc2n1Cc1ccccc1 [Ex. 17, 5-(benzoxazol-2-yl)-1-benzyl-2-methylbenzimidazole] | ++
COc1ccccc1-n1c(C)nc2cc(-c3nc4ccccc4o3)ccc21 [Ex. 30, 5-(benzoxazol-2-yl)-1-(2-methoxyphenyl)-2-methylbenzimidazole] | ++
COc1cccc(-n2c(C)nc3cc(-c4nc5ccccc5o4)ccc32)c1 [Ex. 31, 5-(benzoxazol-2-yl)-1-(3-methoxyphenyl)-2-methylbenzimidazole] | ++
c1ccc(-c2nc3cc(-c4nc5ccccc5o4)ccc3n2C2CCOCC2)cc1 [Ex. 25, 5-(benzoxazol-2-yl)-2-phenyl-1-(tetrahydropyran-4-yl)benzimidazole] | ++
Cc1nc2cc(-c3nc4ccccc4o3)ccc2n1C1CCNCC1 [Ex. 35, 5-(benzoxazol-2-yl)-1-(piperidine-4-yl)-2-methylbenzimidazole] | ++
c1ccc2oc(-c3ccc4c(c3)nc(-c3ncc[nH]3)n4C3CCOCC3)nc2c1 [Ex. 44, 5-(benzoxazol-2-yl)-2-(imidazol-2-yl)-1-(tetrahydropyran-4-yl)benzimidazole] | ++
CN(C)Cc1nc2cc(-c3nc4ccccc4s3)ccc2n1C1CCOCC1 [Ex. 9, 5-(benzothiazol-2-yl)-2-(N,N-dimethylaminomethyl)-1-(tetrahydropyran-4-yl)benzimidazole] | ++
c1cncc(-c2nc3cc(-c4nc5ccccc5o4)ccc3n2C2CCOCC2)c1 [Ex. 24, 5-(benzoxazol-2-yl)-2-(3-pyridyl)-1-(tetrahydropyran-4-yl)benzimidazole] | ++
FC(F)(F)c1nc2cc(-c3nc4ccccc4o3)ccc2n1C1CCOCC1 [Ex. 27, 5-(benzoxazol-2-yl)-1-(tetrahydropyran-4-yl)-2-trifluoromethylbenzimidazole] | ++
Cc1nc2cc(-c3cc4ccccc4o3)ccc2n1C1CCOCC1 [Ex. 19, 5-(benzofuran-2-yl)-2-methyl-1-(tetrahydropyran-4-yl)benzimidazole] | ++
c1ccc(COCc2nc3cc(-c4nc5ccccc5s4)ccc3n2-c2ccccc2)cc1 [Ex. 1, 5-(benzothiazol-2-yl)-1-phenyl-2-(phenylmethoxy)methylbenzimidazole] | +
c1ccc(CNCc2nc3cc(-c4nc5ccccc5o4)ccc3n2C2CCOCC2)cc1 [Ex. 32, 5-(benzoxazol-2-yl)-2-benzylaminomethyl-1-(tetrahydropyran-4-yl)benzimidazole] | ++

same assay, conditions: Test Example 4, same manner as Test Example 1, relative luciferase activity vs 200 ng/mL NGF alone

Structure (SMILES) | Activity (potentiation of NGF activity)
Cc1nc2cc(-c3nc4cc(C(=O)O)ccc4o3)ccc2n1C1CCOCC1 [Ex. 97, 5-(5-carboxylbenzoxazol-2-yl)-2-methyl-1-(tetrahydropyran-4-yl)benzimidazole] | ++
CCOC(=O)Cc1nc2cc(-c3nc4ccccc4o3)ccc2n1C1CCOCC1 [Ex. 86, 5-(benzoxazol-2-yl)-2-(ethoxycarbonylmethyl)-1-(tetrahydropyran-4-yl)benzimidazole] | ++
Cc1nc2cc(-c3nc4cc(C5CCCCC5)ccc4o3)ccc2n1C1CCOCC1 [Ex. 72, 5-(5-cyclohexylbenzoxazol-2-yl)-2-methyl-1-(tetrahydropyran-4-yl)benzimidazole] | ++
c1ccc2oc(-c3ccc4c(c3)nc(-c3ccoc3)n4C3CCOCC3)nc2c1 [Ex. 64, 5-(benzoxazol-2-yl)-2-(furan-3-yl)-1-(tetrahydropyran-4-yl)benzimidazole] | ++
Cc1nc2cc(-c3nc4ccccc4o3)ccc2n1CCN [Ex. 56, 1-(2-aminoethyl)-5-(benzoxazol-2-yl)-2-methylbenzimidazole hydrochloride] | ++
CC(=O)OCC(c1ccccc1)n1c(C)nc2cc(-c3nc4ccccc4o3)ccc21 (stereo not shown) [Ex. 118, 5-(1-benzoxazol-2-yl)-1-(1-acetoxy-2-phenylethan-2-yl)-2-methylbenzimidazole] | ++
Cc1nc2cc(-c3nc4ccccc4o3)ccc2n1C1CCCc2ccccc21 (stereo not shown) [Ex. 87, 5-(benzoxazol-2-yl)-2-methyl-1-(1,2,3,4-tetrahydronaphthalen-1-yl)benzimidazole] | ++
Cc1nc2cc(-c3nc4ccccc4o3)ccc2n1CCN(C)C [Ex. 130] | ++
CC(=O)NCc1nc2cc(-c3nc4cc(Cl)ccc4o3)ccc2n1C1CCOCC1 [Ex. 104, 2-acetylaminomethyl-5-(5-chlorobenzoxazol-2-yl)-1-(tetrahydropyran-4-yl)benzimidazole] | ++
CCCn1cnc2cc(-c3nc4cc(Cl)ccc4o3)ccc21 [Ex. 135, 5-(5-chlorobenzoxazol-2-yl)-1-n-propylbenzimidazole] | ++
Cc1nc2cc(-c3nc4cc(OC(F)(F)F)ccc4o3)ccc2n1C1CCOCC1 [Ex. 76, 5-(5-trifluoromethoxybenzoxazol-2-yl)-2-methyl-1-(tetrahydropyran-4-yl)benzimidazole] | ++
c1ccc(CCc2nc3cc(-c4nc5ccccc5o4)ccc3n2C2CCOCC2)cc1 [Ex. 68, 5-(benzoxazol-2-yl)-2-(2-phenylethyl)-1-(tetrahydropyran-4-yl)benzimidazole] | ++
CS(=O)(=O)CCc1nc2cc(-c3nc4ccccc4o3)ccc2n1C1CCOCC1 [Ex. 134, 5-(benzoxazol-2-yl)-2-(2-(methylsulfonyl)ethyl)-1-(tetrahydropyran-4-yl)benzimidazole] | ++
CSCCc1nc2cc(-c3nc4ccccc4o3)ccc2n1C1CCOCC1 [Ex. 133, 5-(benzoxazol-2-yl)-2-(2-(methylthio)ethyl)-1-(tetrahydropyran-4-yl)benzimidazole] | ++
Cc1nc2cc(-c3nc4ccccc4o3)ccc2n1Cc1ccccn1 [Ex. 79, 5-(benzoxazol-2-yl)-2-methyl-1-(2-picolyl)benzimidazole] | ++
Cc1nc2cc(-c3nc4cc([N+](=O)[O-])ccc4o3)ccc2n1C1CCOCC1 [Ex. 60, 5-(5-nitrobenzoxazol-2-yl)-2-methyl-1-(tetrahydropyran-4-yl)benzimidazole] | ++
NCc1nc2cc(-c3nc4ccccc4o3)ccc2n1C1CCOCC1 [Ex. 67, 2-aminomethyl-5-(benzoxazol-2-yl)-1-(tetrahydropyran-4-yl)benzimidazole hydrochloride] | +
Cc1nc2cc(-c3nc4cc(C#N)ccc4o3)ccc2n1C1CCOCC1 [Ex. 75, 5-(5-cyanobenzoxazol-2-yl)-2-methyl-1-(tetrahydropyran-4-yl)benzimidazole] | ++
Cc1nc2cc(-c3nc4ccccc4o3)ccc2n1CC(C)C(=O)OC(C)(C)C (stereo not shown) [Ex. 121, 5-(benzoxazol-2-yl)-2-methyl-1-(2-tert-butoxycarbonyl-n-propyl)benzimidazole] | ++
Cc1nc2cc(-c3nc4ccccc4o3)ccc2n1CCNC(=O)OC(C)(C)C [Ex. 55, 5-(benzoxazol-2-yl)-1-(2-(tert-butoxycarbonylamino)ethyl)-2-methylbenzimidazole] | ++
CC(C)(C)OC(=O)NCc1nc2cc(-c3nc4ccccc4o3)ccc2n1C1CCOCC1 [Ex. 58, 5-(benzoxazol-2-yl)-2-(tert-butoxycarbamidomethyl)-1-(tetrahydropyran-4-yl)benzimidazole] | ++
COC(=O)c1ccc(Cn2c(C)nc3cc(-c4nc5ccccc5o4)ccc32)cc1 [Ex. 113, 5-(benzoxazol-2-yl)-1-(4-methoxycarbonylphenylmethyl)-2-methylbenzimidazole] | ++
